Measured values reported in US20040152666A1, “Methods of reducing complications associated with peritoneal dialysis in patients with diabetes obesity and/or hyperlipidemia” (priority 2002, published 2004).

Key:
rats = assay: Acute peritoneal dialysis in rats with NAG-based or glucose-based dialysis fluid; format: in vivo, rat
Experimental: Peritoneal transport kinetics as well as blood insulin and glucose levels were evaluated in rats during acute peritoneal dialysis. Peritoneal dialysis fluids tested in the studies described herein were prepared in the laboratory and sterilized by filtration. Electrolyte and buffer compositions of both solutions were identical, similar to those contained in commercially available fluids. Concentrations of the individual solutes were as follows (mmol/l): Na 132, Ca 1.75, Mg 0.75, Cl 102, lactate 35. Glucose or NAG were used as osmotic solutes, both in a concentration of 220 mmol/l. Osmolality of the glucose-based dialysis fluid was 478 mOsm/kg H20 and of the solution containing NAG 476 mOsm/kg H2O; pH of the studied fluids was 7.02 and 7.03, respectively.
Acute peritoneal dialysis was performed in male Wistar rats (b.w.270-330 g) according to the methods described previously (see ref. 10 below). For 24 hours prior to the experiments, animals were given only drinking water and no food. At the beginning of the study, under ether anesthesia, blood samples were collected from the tail vein and thereafter 20 ml of the dialysis fluid was infused via a polyvinyl catheter (1.2 gauge; Vygon, Helsingborg, Sweden); the catheter was instantly removed after infusion. Thereafter the rats were transferred to individual cages, signs of anesthesia disappeared within 5 minutes. Dialysis fluid dwelled in the peritoneal cavity for 1 hour, 3 hours or 6 hours. 12 animals were studied at each time interval: 6 in the NAG group and 6 in the glucose group. During the dialysis animals were conscious with free access to drinking water but no food. At the end of the dwell time rats were again anesthetized with ether, blood samples were collected from the heart and then animals were sacrificed by exsanguination from heart. Afterwards the peritoneal cavity was opened and the dialysate was collected with a pipette. Dialysate volume was measured by weight. Blood and dialysate samples were centrifuged (1500 rpm for 10 minutes) and serum or dialysate supernatant were stored at −20° C. for further analysis. In dialysate samples drained after 6 hrs dwell cell count was determined in a Neubauer chamber.
Serum and dialysate samples were analyzed for creatinine (enzymatic test, Analco, Warsaw) and total protein were analyzed using Lowry method (11). Sodium concentration in the unused dialysis fluid and dialysate was measured with flame photometry (Eppendorf, Germany). Glucose concentration in serum was measured with an enzymatic test (Sigma Chemical, St.Louis, Mo., U.S.A.). Insulin concentration in serum was measured with ELISA kit (Mercodia, Uppsala, Sweden). Hyaluronan concentration in the dialysate samples was measured with ELISA (Chugai, Japan). Sodium sieving and permeability coefficient for creatinine were calculated for exchanges with 1 hour dwell. Results are presented as mean±SD. Statistical analysis was performed with Mann-Whitney test for unpaired data. A p value less than 0.05 was considered significant.

[1] = intraperitoneal infusion of radiolabeled NAG (ref. 19); cited from earlier work
[2] = system: human peritoneal mesothelial cells; details: in vitro, culture medium supplemented with NAG, within six hours (ref. 12); cited from earlier work

With `CC(=O)N[C@H]1C(O)O[C@H](CO)[C@@H](O)[C@@H]1O` (stereo partly shown) [NAG, N-acetylglucosamine] the “dialysate cell count (intraperitoneal inflammation)” value (rats; rat, in vivo, ip) was 945±251 cells/μl, the “dialysate volume compared with glucose-based solution” value (rats; rats, 1 and 3 hrs exchange) was “higher” and the “sodium sieving (D/D0)” value (rats; rats, 1 hour exchange, mean±SD) was 0.955±0.034. The “increase of blood insulin level after 3 hours dialysis” value (rats; rats, 3 hours dialysis, mean±SD) was 4.5 ± 4.7 pmol/L, the end dialysate volume (rats; rats, 6 hour dwell, osmotic solute 220 mmol/l, 20 ml infused, mean±SD) was 34.5 ± 1.7 mL and the “peritoneal permeability to total protein, dialysate/serum ratio×1000 (D/S×1000)” value (rats; rats, 6 hrs dwell, osmotic solute 220 mmol/l, mean±SD) was 9.7±2.5. For the same molecule, the “increase of blood glucose level” value (rats; rats, after 1 hour dwell of NAG dialysis fluid) was 39%, the “increase in blood insulin level, times weaker than with dialysis fluid containing glucose” value (rats; rats, after 3 hours dialysis) was “about 12 times” and the “increase of blood glucose level” value (rats; rats, after 3 hours dwell of NAG dialysis fluid) was 54%. The “increase of blood glucose level” value (rats; rats, after 6 hours dwell of NAG dialysis fluid) was 116%, the “hyaluronan concentration in the dialysate” value (rats; rats, dialysate after 6 hrs dwell, mean±SD) was 60.3 ± 7.8 ng/mL and the “blood glucose concentration, highest observed during dialysis” value (rats; rats, osmotic solute 220 mmol/l, dwell 1, 3 or 6 hours, mean±SD) was 91 ± 9 mg/dL. The “increase of blood insulin level (maximal) during dialysis” value (rats; rats, osmotic solute 220 mmol/l, mean±SD) was 5.0 ± 5.4 pmol/L, the “appearance of the tracer in the exhaled air” value [1] was “about 25%” and the “appearance of the tracer in urine” value [1] was “about 20%”. For the same molecule, the synthesis of hyaluronan [2] was “increase within six hours synthesis of hyaluronan”.
